From ChEMBL document CHEMBL1145270 (Bioorg Med Chem Lett, 2005)

Tests used:
[1] = biological target: T1, Alpha-2C adrenergic receptor (Homo sapiens, UniProt P18825); experiment: In vitro binding affinity measured by displacement of [3H]rauwolscine from alpha-2c adrenergic receptor expressed in CHO cells in presence of phentolamine; format: cell-based
T1 sequence (P18825 whole entry): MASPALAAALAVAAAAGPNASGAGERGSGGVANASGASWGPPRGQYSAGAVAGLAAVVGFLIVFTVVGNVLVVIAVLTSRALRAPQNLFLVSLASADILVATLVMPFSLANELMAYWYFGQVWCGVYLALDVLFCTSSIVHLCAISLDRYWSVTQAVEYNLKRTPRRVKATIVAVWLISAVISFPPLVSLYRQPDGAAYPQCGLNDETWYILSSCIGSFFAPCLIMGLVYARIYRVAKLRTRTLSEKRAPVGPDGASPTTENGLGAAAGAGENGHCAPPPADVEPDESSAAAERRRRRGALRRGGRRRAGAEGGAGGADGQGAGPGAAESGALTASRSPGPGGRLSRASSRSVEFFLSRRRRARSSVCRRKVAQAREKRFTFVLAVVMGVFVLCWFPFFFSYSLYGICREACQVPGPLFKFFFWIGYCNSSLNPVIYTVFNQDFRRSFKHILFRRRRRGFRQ

[2] = biological target: T2, Alpha-2B adrenergic receptor (Homo sapiens, UniProt P18089); experiment: In vitro binding affinity towards alpha-2b adrenergic receptor
T2 sequence (P18089 whole entry): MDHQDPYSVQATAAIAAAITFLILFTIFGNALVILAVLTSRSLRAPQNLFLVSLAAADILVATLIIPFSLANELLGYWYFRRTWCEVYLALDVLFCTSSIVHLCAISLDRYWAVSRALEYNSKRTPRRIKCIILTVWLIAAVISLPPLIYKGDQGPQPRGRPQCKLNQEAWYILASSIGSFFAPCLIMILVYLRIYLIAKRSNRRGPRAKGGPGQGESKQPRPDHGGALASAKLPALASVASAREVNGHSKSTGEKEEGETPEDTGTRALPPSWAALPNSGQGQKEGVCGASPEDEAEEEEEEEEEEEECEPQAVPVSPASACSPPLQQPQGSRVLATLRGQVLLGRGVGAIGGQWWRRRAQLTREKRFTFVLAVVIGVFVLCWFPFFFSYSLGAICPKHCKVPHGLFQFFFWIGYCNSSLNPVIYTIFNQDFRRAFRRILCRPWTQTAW

[3] = biological target: T3, Alpha-2A adrenergic receptor (Homo sapiens, UniProt P08913); experiment: In vitro binding affinity towards alpha-2a adrenergic receptor
T3 sequence (P08913 whole entry): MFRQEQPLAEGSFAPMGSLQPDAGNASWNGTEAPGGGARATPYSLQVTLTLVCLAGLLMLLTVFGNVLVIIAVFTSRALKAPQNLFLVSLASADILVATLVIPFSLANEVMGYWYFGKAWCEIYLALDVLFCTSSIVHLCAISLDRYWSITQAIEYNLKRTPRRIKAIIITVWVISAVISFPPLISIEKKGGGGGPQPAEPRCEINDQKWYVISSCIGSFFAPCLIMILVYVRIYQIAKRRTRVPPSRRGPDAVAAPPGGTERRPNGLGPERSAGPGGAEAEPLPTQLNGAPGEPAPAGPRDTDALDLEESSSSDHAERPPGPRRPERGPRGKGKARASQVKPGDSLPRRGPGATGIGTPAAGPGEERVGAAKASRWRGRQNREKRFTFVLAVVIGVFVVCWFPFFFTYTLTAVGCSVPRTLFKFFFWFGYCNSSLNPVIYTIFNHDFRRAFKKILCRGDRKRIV

SMILES	Ki [1]	Ki [2]	Ki [3]
CC(C)(C)OC(=O)NCCCNC(=O)[C@@H]1C2C[C@H]3c4[nH]c5ccccc5c4CCN3C[C@@H]2CC[C@@H]1O (stereo partly specified)	2.8 nM		
NCCCNC(=O)[C@@H]1C2C[C@H]3c4[nH]c5ccccc5c4CCN3C[C@@H]2CC[C@@H]1O (stereo partly specified)	32 nM		
O=C(CCCNC(=O)[C@@H]1C2C[C@H]3c4[nH]c5ccccc5c4CCN3C[C@@H]2CC[C@@H]1O)OCc1ccccc1 (stereo partly specified)	0.65 nM	1300 nM	29 nM
O=C(NCCCNC(=O)[C@@H]1C2C[C@H]3c4[nH]c5ccccc5c4CCN3C[C@@H]2CC[C@@H]1O)OCc1ccccc1 (stereo partly specified)	1.1 nM		
O=C(NCCCNC(=O)[C@@H]1C2C[C@H]3c4[nH]c5ccccc5c4CCN3C[C@@H]2CC[C@@H]1O)[C@H]1[C@@H]2C[C@@H]3c4[nH]c5ccccc5c4CCN3C[C@H]2CC[C@H]1O (stereo partly specified)	8.5 nM		
O=C(O)[C@@H]1C2C[C@H]3c4[nH]c5ccccc5c4CCN3C[C@@H]2CC[C@@H]1O (stereo partly specified)	19 nM		

Results, then the compound that gave them:

Ki [1]	Ki [2]	Ki [3]	SMILES
5.2 nM			COC(=O)CNC(=O)CNC(=O)[C@@H]1C2C[C@H]3c4[nH]c5ccccc5c4CCN3C[C@@H]2CC[C@@H]1O (stereo partly specified)
3 nM			O=C(O)CCCNC(=O)[C@@H]1C2C[C@H]3c4[nH]c5ccccc5c4CCN3C[C@@H]2CC[C@@H]1O (stereo partly specified)
8 nM			COC(=O)CNC(=O)[C@@H]1C2C[C@H]3c4[nH]c5ccccc5c4CCN3C[C@@H]2CC[C@@H]1O (stereo partly specified)
